# Laboratory results taken from patent publication US20250019350A1, “SYNTHESIS OF THE PROSTATE SPECIFIC MEMBRANE ANTIGEN (PSMA) RADIOLABELED INHIBITOR [18F]DCFPYL” (Progenics Pharmaceuticals, Inc, priority 2023, published 2025).
# Several values for one entry are separate records, joined by “and”; a condition that tells them apart may be missing. Identical values can stand only once.
# Test: Radiolysis / stability of [18F]DCFPyL over time by HPLC with radiodetection (RCP, free 18F, radioactive impurities)
# Format: physicochemical
# Protocol: Those of ordinary skill in the art will be aware of techniques and systems for determining the radiochemical purity of a composition. In some cases, the radiochemical purity is determined using an HPLC associated with a radio-detector. Generally, the radiochemical purity is determined under ambient conditions (e.g., ambient temperature, ambient humidity, ambient light, etc.), such as in samples stored under such conditions.
# Stability was assessed using reverse phase HPLC on a C18 column with a phosphate buffer/acetonitrile gradient mobile phase, and the elution profile was monitored using both UV and radiochemical detectors. Samples were analyzed either by direct injection onto the HPLC, dilution and injection or including the addition of tetraethylammonium fluoride (TEAF) into the sample before injection.
# Known amounts of free ^18F either alone or spiked with TEAF were injected onto the analytic column and the eluent from the column collected over the course of a chromatogram and assaying the radioactivity using a Capintec. […] Adding TEAF into the analytic samples was incorporated into subsequent studies examining potential radiolysis of [^18F]DCFPyL to overcome some of the limitations of free ^18F quantification.
# Analytical HPLC method was used. The method employs UV detection at 264 nm for chemical impurities, and an Eckert & Ziegler model B-FC-1000 gamma detector for radiochemical assays.
# [1] = T = 2.5 hr, 100 mg/mL ascorbic acid pH 2.0, 256 mCi/mL at EOS
# [2] = T = 2.5 hr, 20% ethanol in saline, 52 mCi/mL at EOS
# [3] = T = 2.5 hr, 20% ethanol in saline, 65 mCi/mL at EOS
# [4] = T = 2.5 hr, 20% ethanol in saline, 85 mCi/mL at EOS
# [5] = T = 2.5 hr, control without ascorbic acid, 36% ethanol in saline, 147 mCi/mL at EOS
# [6] = T = 3.0 hr, 50 mg/mL ascorbic acid pH 5.8 in final product vial, 20% ethanol, 110 mCi/mL at EOS
# [7] = T = 3.0 hr, 100 mg/mL ascorbic acid pH 2.0, 256 mCi/mL at EOS
# [8] = T = 3 hr, 20% ethanol in saline, 52 mCi/mL at EOS
# [9] = T = 3 hr, 20% ethanol in saline, 65 mCi/mL at EOS
# [10] = T = 3 hr, 20% ethanol in saline, 85 mCi/mL at EOS
# [11] = T = 3 hr, 100% ethanol, 325 mCi/mL at EOS
# [12] = T = 3 hr, control without ascorbic acid, 36% ethanol in saline, 147 mCi/mL at EOS
# [13] = T = 3.5 hr, 50 mg/mL ascorbic acid pH 5.8 in final product vial, 20% ethanol, 110 mCi/mL at EOS
# [14] = T = 3.5 hr, 100 mg/mL ascorbic acid pH 2.0, 256 mCi/mL at EOS
# [15] = T = 3.5 hr, 20% ethanol in saline, 52 mCi/mL at EOS
# [16] = T = 3.5 hr, 20% ethanol in saline, 65 mCi/mL at EOS
# [17] = T = 3.5 hr, 20% ethanol in saline, 85 mCi/mL at EOS
# [18] = T = 3.5 hr, control without ascorbic acid, 36% ethanol in saline, 147 mCi/mL at EOS
# [19] = T = 4 hr, 0.5 mg/mL ascorbic acid pH 5.8, 20% ethanol, 105.8 mCi/mL at EOS
# [20] = T = 4 hr, 1 mg/mL ascorbic acid pH 5.8, 20% ethanol, 107.0 mCi/mL at EOS
# [21] = T = 4 hr, 5 mg/mL ascorbic acid pH 5.8, 20% ethanol, 99.0 mCi/mL at EOS
# [22] = T = 4 hr, 20 mg/mL sodium citrate, 20% ethanol, 104.8 mCi/mL at EOS
# [23] = T = 4 hr, 50 mg/mL ascorbic acid pH 5.8, 20% ethanol, 139.7 mCi/mL at EOS
# [24] = T = 4.0 hr, 50 mg/mL ascorbic acid pH 5.8 in final product vial, 20% ethanol, 110 mCi/mL at EOS
# [25] = T = 4.0 hr, 100 mg/mL ascorbic acid pH 2.0, 256 mCi/mL at EOS
# [26] = T = 4 hr, 20% ethanol in saline, 52 mCi/mL at EOS
# [27] = T = 4 hr, 20% ethanol in saline, 65 mCi/mL at EOS
# [28] = T = 4 hr, 20% ethanol in saline, 85 mCi/mL at EOS
# [29] = T = 4 hr, 100% ethanol, 325 mCi/mL at EOS
# [30] = T = 4 hr, control without ascorbic acid, 36% ethanol in saline, 147 mCi/mL at EOS
# [31] = T = 5 hr, 100% ethanol, 325 mCi/mL at EOS
structure (smiles),measurement,setting,value
"O=C(O)CC[C@H](NC(=O)N[C@@H](CCCCNC(=O)c1ccc([18F])nc1)C(=O)O)C(=O)O [Lot 18F-DCFPyL, 2-(3-{1-carboxy-5-[(6-[18F]fluoro-pyridine-3-carbonyl)-amino]-pentyl}ureido)-pentanedioic acid]",18F-DCFPyL (RCP),[1],98.71%
same,Free 18F,[1],0.31%
same,RT 12.0 radioactive impurity,[1],0.52%
same,RT 12.2 radioactive impurity,[1],0.46%
same,18F-DCFPyL (RCP),[2],98.61%
same,Free F-18,[2],0.86%
same,RT 5.0 radioactive impurity,[2],0.53%
same,18F-DCFPyL (RCP),[3],95.36%
same,Free F-18,[3],3.97%
same,RT 5.0 radioactive impurity,[3],0.41%
same,RT 5.9 radioactive impurity,[3],0.26%
same,18F-DCFPyL (RCP),[4],95.06%
same,Free F-18,[4],4.29%
same,RT 5.0 radioactive impurity,[4],0.31%
same,RT 5.9 radioactive impurity,[4],0.35%
same,18F-DCFPyL (RCP),[5],88.79%
same,Free F-18,[5],9.66%
same,RT 5.0 radioactive impurity,[5],0.62%
same,RT 5.9 radioactive impurity,[5],0.93%
same,18F-DCFPyL (RCP),[6],99.25%
same,Free 18F,[6],0.35%
same,RT 5.0 radioactive impurity,[6],0.39%
same,RT 5.9 radioactive impurity,[6],0.27%
same,18F-DCFPyL (RCP),[7],98.46%
same,Free 18F,[7],0.29%
same,RT 12.0 radioactive impurity,[7],0.69%
same,RT 12.2 radioactive impurity,[7],0.57%
same,18F-DCFPyL (RCP),[8],98.53%
same,Free F-18,[8],0.99%
same,RT 5.0 radioactive impurity,[8],0.48%
same,18F-DCFPyL (RCP),[9],95.64%
same,Free F-18,[9],4.03%
same,RT 5.0 radioactive impurity,[9],0.34%
same,18F-DCFPyL (RCP),[10],95.10%
same,Free F-18,[10],4.26%
same,RT 5.0 radioactive impurity,[10],0.37%
same,RT 5.9 radioactive impurity,[10],0.27%
same,18F-DCFPyL (RCP),[11],95.71%
same,Free F-18,[11],4.29%
same,18F-DCFPyL (RCP),[12],88.94%
same,Free F-18,[12],9.49%
same,RT 5.0 radioactive impurity,[12],0.70%
same,RT 5.9 radioactive impurity,[12],0.87%
same,18F-DCFPyL (RCP),[13],99.46%
same,Free 18F,[13],0.24%
same,RT 5.0 radioactive impurity,[13],0.31%
same,18F-DCFPyL (RCP),[14],98.03%
same,Free 18F,[14],0.35%
same,RT 12.0 radioactive impurity,[14],0.88%
same,RT 12.2 radioactive impurity,[14],0.75%
same,18F-DCFPyL (RCP),[15],98.55%
same,Free F-18,[15],0.94%
same,RT 5.0 radioactive impurity,[15],0.52%
same,18F-DCFPyL (RCP),[16],95.44%
same,Free F-18,[16],4.17%
same,RT 5.0 radioactive impurity,[16],0.39%
same,18F-DCFPyL (RCP),[17],95.14%
same,Free F-18,[17],4.51%
same,RT 5.0 radioactive impurity,[17],0.35%
same,18F-DCFPyL (RCP),[18],88.90%
same,Free F-18,[18],9.56%
same,RT 5.0 radioactive impurity,[18],0.59%
same,RT 5.9 radioactive impurity,[18],0.95%
same,18F-DCFPyL (% RCP),[19],98.64%
same,Free F-18,[19],1.36%
same,18F-DCFPyL (% RCP),[20],98.56%
same,Free F-18,[20],1.44%
same,Free F-18,"T = 4 hr, 1 mg/mL sodium ascorbate, 20% ethanol, 111.5 mCi/mL at EOS",2.61%
same,18F-DCFPyL (% RCP),[21],99.23%
same,Free F-18,[21],0.77%
same,Free F-18,"T = 4 hr, 5 mg/mL sodium ascorbate, 20% ethanol, 114.6 mCi/mL at EOS",1.23%
same,Free F-18,[22],20.65%
same,RT 3.4 radioactive impurity,[22],0.32%
same,RT 3.7 radioactive impurity,[22],0.35%
same,18F-DCFPyL (% RCP),[23],99.69%
same,Free F-18,[23],0.31%
same,RT 4.8 radioactive impurity,"T = 4 hr, 50 mg/mL ascorbic acid pH 5.8, 20% ethanol, 139.7 mCi/mL at EOS, MPA = 0.25% of main peak",<MPA
same,18F-DCFPyL (RCP),[24],above 99%
same,Free 18F,[24],0.26%
same,RT 5.0 radioactive impurity,[24],0.37%
same,18F-DCFPyL (RCP),[25],98.0% and 97.98%
same,Free 18F,[25],0.37%
same,RT 12.0 radioactive impurity,[25],0.96%
same,RT 12.2 radioactive impurity,[25],0.69%
same,18F-DCFPyL (RCP),"T = 4.0 hr, 100 mg/mL ascorbic acid pH 2.0, 256 mCi/mL at EOS, listed as [^18F]DCFPYL",98.0%
same,18F-DCFPyL (RCP),[26],98.53%
same,Free F-18,[26],0.98%
same,RT 5.0 radioactive impurity,[26],0.49%
same,18F-DCFPyL (RCP),[27],95.50%
same,Free F-18,[27],4.23%
same,RT 5.0 radioactive impurity,[27],0.27%
same,18F-DCFPyL (RCP),[28],94.93%
same,Free F-18,[28],4.73%
same,RT 5.0 radioactive impurity,[28],0.34%
same,18F-DCFPyL (RCP),[29],95.60%
same,Free F-18,[29],4.40%
same,18F-DCFPyL (RCP),[30],89% and 89.06%
same,Free F-18,[30],9.27%
same,RT 5.0 radioactive impurity,[30],0.71%
same,RT 5.9 radioactive impurity,[30],0.96%
same,18F-DCFPyL (RCP),"T = 4 hr, control without ascorbic acid, 36% ethanol in saline, 147 mCi/mL at EOS, listed as [^18F]DCFPYL",89%
same,18F-DCFPyL (RCP),[31],95.58%
same,Free F-18,[31],4.42%
same,Free F-18,"T = 6 hr, 0.5 mg/mL ascorbic acid pH 5.8, 20% ethanol, 105.8 mCi/mL at EOS",1.44%
same,18F-DCFPyL (% RCP),"T = 6 hr, 1 mg/mL ascorbic acid pH 5.8, 20% ethanol, 107.0 mCi/mL at EOS",98.43%
